24 compounds from patent US11407767B2, “Heterocyclyl substituted pyrrolopyridines that are inhibitors of the CDK12 kinase” (The University of Nottingham, priority 2017, dated 2022) can be followed below.

One assay has as its target CDK12/CycK (Homo sapiens, UniProt Q9NYV4). Nature of the assay: Inhibition of CDK12 (ADP-Glo kinase assay). The assay is classed as biochemical. Particulars: 60 nM CDK12/CycK, 30 minutes pre-incubation, 1 μM ATP, 0.5 μM RBER-IRStide substrate, 1 h at 25° C., read-out: CDK12/cyclin K IC50. The gist of the method:
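ADP-Glo luminescence read after a 1 h, 25 °C reaction with 1 μM ATP and 0.5 μM RBER-IRStide peptide. Enzyme (60 nM) and compound were first pre-incubated 30 min; buffer 50 mM HEPES pH 7.5, 20 mM MgCl2, 3 mM MnCl2, 1% DMSO. IC50 fitted after blank subtraction.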

A further assay relates to DM1 fibroblasts. Nature of the assay: Nuclear foci assay. The assay is classed as cell-based. The conditions noted are these: Fibroblast; DM1 fibroblasts treated for 24 hours, 11 point dilution 20 μM-19 nM, in situ hybridisation with cy3 labelled CAG10 probe. The protocol:
DM1 fibroblasts were treated with compounds in an 11 point dilution series from 20 μM-19 nM for 24 hours. Following treatment, fluorescent in situ hybridisation was performed with a cy3 labelled CAG10 probe, to visualize nuclear foci and cells were analysed on a Molecular Devices plate reader with customised MetaExpress software (Ketley, A. et al. (2014). Hum Mol Genet, 23: 1551-1562). Compounds that reduced nuclear foci in a concentration dependent manner, compared to DMSO treated cells were identified.

Sequence of CDK12/CycK (Q9NYV4 whole entry): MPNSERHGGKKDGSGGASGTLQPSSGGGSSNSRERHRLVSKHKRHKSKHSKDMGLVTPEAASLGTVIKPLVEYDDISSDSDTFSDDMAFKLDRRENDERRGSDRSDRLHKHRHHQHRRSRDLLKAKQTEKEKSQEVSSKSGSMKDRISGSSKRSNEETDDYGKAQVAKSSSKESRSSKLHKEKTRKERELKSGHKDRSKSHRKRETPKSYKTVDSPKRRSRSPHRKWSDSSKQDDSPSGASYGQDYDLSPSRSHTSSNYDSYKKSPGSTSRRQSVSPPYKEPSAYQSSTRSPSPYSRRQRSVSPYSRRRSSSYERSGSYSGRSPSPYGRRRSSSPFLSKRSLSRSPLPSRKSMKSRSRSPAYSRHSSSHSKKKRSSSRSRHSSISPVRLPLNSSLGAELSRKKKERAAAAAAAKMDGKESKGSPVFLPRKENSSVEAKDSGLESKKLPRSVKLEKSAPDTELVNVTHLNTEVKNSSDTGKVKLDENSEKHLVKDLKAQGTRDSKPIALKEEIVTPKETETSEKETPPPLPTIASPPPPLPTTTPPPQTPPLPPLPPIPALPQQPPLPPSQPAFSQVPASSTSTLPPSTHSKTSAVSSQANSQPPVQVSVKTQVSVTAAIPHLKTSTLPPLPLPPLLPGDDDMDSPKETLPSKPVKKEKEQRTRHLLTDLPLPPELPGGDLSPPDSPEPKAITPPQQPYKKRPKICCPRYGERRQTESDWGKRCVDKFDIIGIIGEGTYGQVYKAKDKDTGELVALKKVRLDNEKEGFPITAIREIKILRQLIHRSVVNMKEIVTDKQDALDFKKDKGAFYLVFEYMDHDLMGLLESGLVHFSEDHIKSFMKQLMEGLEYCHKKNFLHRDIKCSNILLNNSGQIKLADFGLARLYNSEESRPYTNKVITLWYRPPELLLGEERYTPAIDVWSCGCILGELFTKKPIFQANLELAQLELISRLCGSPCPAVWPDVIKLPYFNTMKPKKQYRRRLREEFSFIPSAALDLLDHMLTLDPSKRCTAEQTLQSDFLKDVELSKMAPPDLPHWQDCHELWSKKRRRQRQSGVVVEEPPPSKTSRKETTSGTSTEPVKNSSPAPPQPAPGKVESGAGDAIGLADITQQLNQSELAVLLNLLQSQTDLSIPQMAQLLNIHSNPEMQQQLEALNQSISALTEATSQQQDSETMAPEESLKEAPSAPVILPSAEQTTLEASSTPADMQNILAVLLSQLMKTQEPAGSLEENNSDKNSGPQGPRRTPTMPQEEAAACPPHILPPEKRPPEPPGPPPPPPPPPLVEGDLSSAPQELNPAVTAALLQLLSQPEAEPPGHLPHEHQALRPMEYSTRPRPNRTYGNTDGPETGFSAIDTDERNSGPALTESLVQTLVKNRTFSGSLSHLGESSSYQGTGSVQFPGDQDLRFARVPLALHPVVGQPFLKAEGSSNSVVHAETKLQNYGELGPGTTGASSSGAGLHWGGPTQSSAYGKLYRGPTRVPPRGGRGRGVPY
Sequence of CDK12/CycK (O75909 whole entry partner): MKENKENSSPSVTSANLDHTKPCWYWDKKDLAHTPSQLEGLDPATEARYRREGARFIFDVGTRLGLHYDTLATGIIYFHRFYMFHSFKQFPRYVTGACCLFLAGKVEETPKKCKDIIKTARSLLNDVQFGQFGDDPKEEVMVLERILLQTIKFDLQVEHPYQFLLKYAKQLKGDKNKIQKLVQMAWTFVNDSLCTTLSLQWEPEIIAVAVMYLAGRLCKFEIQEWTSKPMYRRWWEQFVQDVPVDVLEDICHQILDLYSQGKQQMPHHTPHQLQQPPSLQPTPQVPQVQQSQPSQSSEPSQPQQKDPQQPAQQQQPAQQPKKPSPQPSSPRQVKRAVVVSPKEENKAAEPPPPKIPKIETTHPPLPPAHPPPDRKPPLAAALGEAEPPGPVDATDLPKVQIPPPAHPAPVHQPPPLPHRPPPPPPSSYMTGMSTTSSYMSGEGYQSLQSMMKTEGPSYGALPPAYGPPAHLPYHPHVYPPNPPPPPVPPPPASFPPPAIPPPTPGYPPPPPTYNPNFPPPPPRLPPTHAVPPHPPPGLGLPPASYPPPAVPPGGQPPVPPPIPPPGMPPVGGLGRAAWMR

As for `C=CC(=O)N1CCC[C@@H](C(=O)NCCc2cc3c(-c4cnn5ncccc45)ccnc3[nH]2)C1` [Example 34, (R)-1-Acryloyl-N-(2-(4-(pyrazolo[1,5-b]pyridazin-3-yl)-1H-pyrrolo[2,3-b]pyridin-2-yl)ethyl)piperidine-3-carboxamide], the IC50 was less than 100 nM at CDK12/CycK and 1000 to 10000 nM with DM1 fibroblasts.
The corresponding values for `C=CC(=O)N1CCC[C@H](C(=O)NCCc2cc3c(-c4cnn5ncccc45)ccnc3[nH]2)C1` [Example 35, (S)-1-acryloyl-N-(2-(4-(pyrazolo[1,5-b]pyridazin-3-yl)-1H-pyrrolo[2,3-b]pyridin-2-yl)ethyl)piperidine-3-carboxamide] are less than 100 nM and less than 1000 nM.
Taken in the same sequence, the figures for `C=CC(=O)Nc1cccc(C(=O)NCCc2cc3c(-c4cnn5ncccc45)ccnc3[nH]2)c1` [Example 36, 3-Acrylamido-N-(2-(4-(pyrazolo[1,5-b]pyridazin-3-yl)-1H-pyrrolo[2,3-b]pyridin-2-yl)ethyl)benzamide] were less than 100 nM and less than 1000 nM.
The corresponding values for `C=CC(=O)N1CC(C(=O)NCCc2cc3c(-c4cnn5ncccc45)ccnc3[nH]2)C1` [Example 37, 1-Acryloyl-N-(2-(4-(pyrazolo[1,5-b]pyridazin-3-yl)-1H-pyrrolo[2,3-b]pyridin-2-yl)ethyl)azetidine-3-carboxamide] are less than 100 nM and 1000 to 10000 nM.
Consider `CC(C)=CC(=O)N1CCC[C@H]1C(=O)NCCc1cc2c(-c3cnn4ncccc34)ccnc2[nH]1` [Example 42, (S)-1-(3-Methylbut-2-enoyl)-N-(2-(4-(pyrazolo[1,5-b]pyridazin-3-yl)-1H-pyrrolo[2,3-b]pyridin-2-yl)ethyl)pyrrolidine-2-carboxamide], for which the IC50 was 100 to 1000 nM at CDK12/CycK and 1000 to 10000 nM with DM1 fibroblasts.
Take `C=C(C)C(=O)N1CCC[C@H]1C(=O)NCCc1cc2c(-c3cnn4ncccc34)ccnc2[nH]1` [Example 43, (S)-1-Methacryloyl-N-(2-(4-(pyrazolo[1,5-b]pyridazin-3-yl)-1H-pyrrolo[2,3-b]pyridin-2-yl)ethyl)pyrrolidine-2-carboxamide]: the IC50 on CDK12/CycK lay within 1000 to 30000 nM; in the assay with DM1 fibroblasts, 10000 to 100000 nM.
The corresponding values for `C/C=C/C(=O)N1CCC[C@H]1C(=O)NCCc1cc2c(-c3cnn4ncccc34)ccnc2[nH]1` [Example 44, (S,E)-1-(But-2-enoyl)-N-(2-(4-(pyrazolo[1,5-b]pyridazin-3-yl)-1H-pyrrolo[2,3-b]pyridin-2-yl)ethyl)pyrrolidine-2-carboxamide] are 1000 to 30000 nM and 1000 to 10000 nM.
Taken in the same sequence, the figures for `CC(C)(CCl)C(=O)N1CCC[C@H]1C(=O)NCCc1cc2c(-c3cnn4ncccc34)ccnc2[nH]1` [Example 45, (S)-1-(3-Chloro-2,2-dimethylpropanoyl)-N-(2-(4-(pyrazolo[1,5-b]pyridazin-3-yl)-1H-pyrrolo[2,3-b]pyridin-2-yl)ethyl)pyrrolidine-2-carboxamide] were 100 to 1000 nM and 10000 to 100000 nM.
The corresponding values for `C=CC(=O)N1CCC[C@@H]1C(=O)NCCc1cc2c(-c3cnn4ncccc34)c(Cl)cnc2[nH]1` [Example 54, (R)-1-Acryloyl-N-(2-(5-chloro-4-(pyrazolo[1,5-b]pyridazin-3-yl)-1H-pyrrolo[2,3-b]pyridin-2-yl)ethyl)pyrrolidine-2-carboxamide] are less than 100 nM and less than 1000 nM.
Take `C=CC(=O)N1CCC[C@H](C(=O)NCCc2cc3c(-c4cnn5ncccc45)c(Cl)cnc3[nH]2)C1` [Example 55, (S)-1-Acryloyl-N-(2-(5-chloro-4-(pyrazolo[1,5-b]pyridazin-3-yl)-1H-pyrrolo[2,3-b]pyridin-2-yl)ethyl)piperidine-3-carboxamide]: the IC50 on CDK12/CycK is less than 100 nM; in the assay on DM1 fibroblasts it was 1000 to 10000 nM.
Taken in the same sequence, the figures for `C=CC(=O)Nc1ccc(C(=O)NCc2cc3c(-c4cnn5ncccc45)ccnc3[nH]2)cc1` [Example 57, 4-Acrylamido-N-((4-(pyrazolo[1,5-b]pyridazin-3-yl)-1H-pyrrolo[2,3-b]pyridin-2-yl)methyl)benzamide] were 100 to 1000 nM and 1000 to 10000 nM.
The corresponding values for `C=CC(=O)N1CCOC[C@@H]1C(=O)NCCc1cc2c(-c3cnn4ncccc34)ccnc2[nH]1` [Example 63, (R)-4-Acryloyl-N-(2-(4-(pyrazolo[1,5-b]pyridazin-3-yl)-1H-pyrrolo[2,3-b]pyridin-2-yl)ethyl)morpholine-3-carboxamide] are less than 100 nM and less than 1000 nM.
The corresponding values for `CN(C)C/C=C/C(=O)N1CCC(CC(=O)N2CCC(c3cc4c(-c5cnn6ncccc56)ccnc4[nH]3)C2)CC1` (stereo not drawn) [Example 69, (E)-4-(Dimethylamino)-1-(4-(2-oxo-2-(3-(4-(pyrazolo[1,5-b]pyridazin-3-yl)-1H-pyrrolo[2,3-b]pyridin-2-yl)pyrrolidin-1-yl)ethyl)piperidin-1-yl)but-2-en-1-one] are 100 to 1000 nM and 10000 to 100000 nM.
Take `C[C@@H](Cl)C(=O)N1CCC[C@@H]1C(=O)N1CCC(c2cc3c(-c4cnn5ncccc45)ccnc3[nH]2)C1` (stereo partly drawn) [Example 70, (2R)-2-Chloro-1-((2R)-2-(3-(4-(pyrazolo[1,5-b]pyridazin-3-yl)-1H-pyrrolo[2,3-b]pyridin-2-yl)pyrrolidine-1-carbonyl)pyrrolidin-1-yl)propan-1-one]: the values for the IC50 at CDK12/CycK and with DM1 fibroblasts were 100 to 1000 nM and 1000 to 10000 nM, respectively.
In the case of `CN(C)C/C=C/C(=O)N1CC[C@@H](OCC(=O)N2CCC(c3cc4c(-c5cnn6ncccc56)ccnc4[nH]3)C2)C1` (stereo partly drawn) [Example 71, (E)-4-(Dimethylamino)-1-((3R)-3-(2-oxo-2-(3-(4-(pyrazolo[1,5-b]pyridazin-3-yl)-1H-pyrrolo[2,3-b]pyridin-2-yl)pyrrolidin-1-yl)ethoxy)pyrrolidin-1-yl)but-2-en-1-one], the values for the IC50 on CDK12/CycK and in the assay on DM1 fibroblasts were 100 to 1000 nM and 1000 to 10000 nM, respectively.
The corresponding values for `CN(C)C/C=C/C(=O)N1CCC[C@@H](C(=O)N2CCC(c3cc4c(-c5cnn6ncccc56)ccnc4[nH]3)C2)C1` (stereo partly drawn) [Example 72, (E)-4-(Dimethylamino)-1-((3R)-3-(3-(4-(pyrazolo[1,5-b]pyridazin-3-yl)-1H-pyrrolo[2,3-b]pyridin-2-yl)pyrrolidine-1-carbonyl)piperidin-1-yl)but-2-en-1-one] are 100 to 1000 nM and 1000 to 10000 nM.
As to `CCC(=O)N1CCC[C@H]1C(=O)NCCc1cc2c(-c3cnn4ncccc34)ccnc2[nH]1` [Example 73, (S)-1-Propionyl-N-(2-(4-(pyrazolo[1,5-b]pyridazin-3-yl)-1H-pyrrolo[2,3-b]pyridin-2-yl)ethyl)pyrrolidine-2-carboxamide], the values for the IC50 at CDK12/CycK and in the assay with DM1 fibroblasts were 1000 to 30000 nM and 10000 to 100000 nM, respectively.
Taken in the same sequence, the figures for `C=CC(=O)Nc1ccc(C(=O)NCCc2cc3c(-c4cnn5ncccc45)ccnc3[nH]2)cc1` [Example 76, 4-Acrylamido-N-(2-(4-(pyrazolo[1,5-b]pyridazin-3-yl)-1H-pyrrolo[2,3-b]pyridin-2-yl)ethyl)benzamide] were less than 100 nM and less than 1000 nM.
Taken in the same sequence, the figures for `CC#CC(=O)N1CCC[C@H]1C(=O)NCCc1cc2c(-c3cnn4ncccc34)ccnc2[nH]1` [Example 83, (S)-1-(But-2-ynoyl)-N-(2-(4-(pyrazolo[1,5-b]pyridazin-3-yl)-1H-pyrrolo[2,3-b]pyridin-2-yl)ethyl)pyrrolidine-2-carboxamide] were 100 to 1000 nM and 1000 to 10000 nM.
The corresponding values for `CN(C)C/C=C/C(=O)N1CCC[C@H]1C(=O)NCCc1cc2c(-c3cnn4ncccc34)ccnc2[nH]1` [Example 84, (S,E)-1-(4-(Dimethylamino)but-2-enoyl)-N-(2-(4-(pyrazolo[1,5-b]pyridazin-3-yl)-1H-pyrrolo[2,3-b]pyridin-2-yl)ethyl)pyrrolidine-2-carboxamide] are 1000 to 30000 nM and 10000 to 100000 nM.
With `C=CC(=O)N1CCCC[C@H]1C(=O)NCCc1cc2c(-c3cnn4ncccc34)ccnc2[nH]1` [Example 92, (S)-1-Acryloyl-N-(2-(4-(pyrazolo[1,5-b]pyridazin-3-yl)-1H-pyrrolo[2,3-b]pyridin-2-yl)ethyl)piperidine-2-carboxamide], the figures for the IC50 at CDK12/CycK and with DM1 fibroblasts were less than 100 nM and 1000 to 10000 nM, respectively.
With `C=CC(=O)N1CCC[C@H]1C(=O)NCCc1cc2c(-c3cnn(C)c3)ccnc2[nH]1` [Example 94, (S)-1-Acryloyl-N-(2-(4-(1-methyl-1H-pyrazol-4-yl)-1H-pyrrolo[2,3-b]pyridin-2-yl)ethyl)pyrrolidine-2-carboxamide], the IC50 on CDK12/CycK lay within 100 to 1000 nM; in the assay with DM1 fibroblasts, 10000 to 100000 nM.
Taken in the same sequence, the figures for `C=CC(=O)Nc1cccc(C(=O)N2CCN(Cc3cc4c(-c5cnn6ncccc56)ccnc4[nH]3)CC2)c1` [Example 111, N-(3-(4-((4-(Pyrazolo[1,5-b]pyridazin-3-yl)-1H-pyrrolo[2,3-b]pyridin-2-yl)methyl)piperazine-1-carbonyl)phenyl)acrylamide] were 100 to 1000 nM and 1000 to 10000 nM.
Consider `C=CC(=O)Nc1ccc(C(=O)N2CCN(Cc3cc4c(-c5cnn6ncccc56)ccnc4[nH]3)CC2)cc1` [Example 112, N-(4-(4-((4-(Pyrazolo[1,5-b]pyridazin-3-yl)-1H-pyrrolo[2,3-b]pyridin-2-yl)methyl)piperazine-1-carbonyl)phenyl)acrylamide], for which the IC50 on CDK12/CycK lay in the range of 100 to 1000 nM; in the assay with DM1 fibroblasts it was 1000 to 10000 nM.
